Measurements: patent US10745399B2 (priority 2015, dated 2020)

tested on: CHK2 phosphorylation (phospho-Thr68) in HCT116 cells; test: Cellular pCHK2 assay, bleomycin-induced phosphorylation of CHK2 (phospho-Thr68), immunofluorescence high content; type: cell-based; settings: Homo sapiens, HCT-116; HCT116 cells, 10 μM bleomycin, 4 h; read-out: IC50 (pCHK2)
Description: For the identification of substances which inhibit the phosphorylation of the protein kinase CHK2 at the amino acid threonine 68, an immunofluorescence-based “high content” analysis assay was used in HCT116 cells.
In vitro cell-based immunofluorescence assay for the identification of inhibitors of bleomycin-induced phosphorylation of CHK2 (phospho-Thr68) in the human colon carcinoma cell line HCT116:
HCT116 cells are sown out in a defined cell density in 384-well plates in culture medium (DMEM high glucose, 2 mM GlutaMax, 1 mM Na pyruvate, 10% FCS) and incubated overnight at 37° C. and 10% of CO2. On the following day, the test substances are added in a defined concentration range (1 nM to 30 μM) in combination with 10 μM bleomycin, where the concentration of the solvent DMSO is kept constant at 0.5%. After incubation for four hours at 37° C. and 10% of CO2, the cells are fixed (5 min, 4% formaldehyde in PBS), permeabilised (10 min, 0.2% Triton X-100 in PBS) and, after blocking of nonspecific binding sites (10% goat serum, 1% BSA in PBS), incubated overnight at 4° C. with a specific anti-pCHK2 antibody (cell signalling #2661). pCHK2 (Thr68) is determined using an Alexa488-labelled secondary anti-rabbit IgG antibody. Parallel staining of DNA with propidium iodide enables determination of the cell count. The pCHK2 signal is detected using a high-content imager (Molecular Devices IMX Ultra) and automatic image analysis using the MetaXpress software belonging to the instrument. The number of cell nuclei which have a pCHK2 signal above a defined background is determined.

| Structure (SMILES) | IC50 [nM] |
| --- | --- |
| CCn1cc(-c2cc3c(cc2OC)ncc2c3n(-c3c(F)cncc3OC)c(=O)n2C)c(C)n1 [compound 142, 8-(1-Ethyl-3-methyl-1H-pyrazol-4-yl)-1-(3-fluoro-5-methoxypyridin-4-yl)-7-methoxy-3-methyl-1,3-dihydroimidazo[4,5-c] quinolin-2-one] | 200 to 1000 |
| COc1cc2ncc3c(c2cc1-c1cnn(C)c1)n(-c1ccc2cc[nH]c2n1)c(=O)n3C [compound 69, 7-Methoxy-3-methyl-8-(1-methyl-1H-pyrazol-4-yl)-1-(1H-pyrrolo[2,3-b]pyridin-6-yl)1,3-dihydroimidazo-[4,5-c]quinolin-2-one] | 200 to 1000 |
| COc1cnc(-n2c(=O)n(C)c3cnc4cc(OC)c(-c5ccn[nH]5)cc4c32)c(F)c1 [compound 109, 1-(3-Fluoro-5-methoxy-pyridin-2-yl)-7-methoxy-3-methyl-8-(2H-pyrazol-3-yl)-1,3-dihydroimidazo[4,5-c] quinolin-2-one] | < 200 |
| COc1cc2ncc3c(c2cc1-c1cnn(C)c1)n(-c1ccc2ccccc2n1)c(=O)n3C [compound 68, 7-Methoxy-3-methyl-8-(1-methyl-1H-pyrazol-4-yl)-1-quinolin-2-yl-1,3-dihydro-imidazo[4,5-c]quinolin-2-one] | 1000 to 2000 |
| COc1cnc(-n2c(=O)[nH]c3cnc4cc(OC)c(-c5cnn(C)c5)cc4c32)c(F)c1 [compound 115, 1-(3-Fluoro-5-methoxy-pyridin-2-yl)-7-methoxy-8-(1-methyl-1H-pyrazol-4-yl)-1,3-dihydroimidazo[4,5-c]-quinolin-2-one] | 200 to 1000 |
| COc1cc2ncc3c(c2cc1-c1cnn(C)c1)n(-c1ccc(C#N)cn1)c(=O)n3C [Compound Example 48, 6-[7-Methoxy-3-methyl-8-(1-methyl-1H-pyrazol-4-yl)-2-oxo-2,3-dihydroimidazo-[4,5-c]quinolin-1-yl]-nicotinonitrile] | 200 to 1000 |
| COc1cnc(-n2c(=O)n(C)c3cnc4cc(OC)c(-c5cn(C)nn5)cc4c32)c(F)c1 [compound 133, 1-(3-Fluoro-5-methoxy-pyridin-2-yl)-7-methoxy-3-methyl-8-(1-methyl-1H-1,2,3-triazol-4-yl)-1,3-dihydroimidazo[4,5-c] quinolin-2-one] | 200 to 1000 |
| COc1cc2ncc3c(c2cc1-c1cnc2nc(C)[nH]c2c1)n(-c1cn(C)nc1C)c(=O)n3C [compound 154, 1-(1,3-Dimethyl-1H-pyrazol-4-yl)-7-methoxy-3-methyl-8-(2-methyl-1H-imidazo[4,5-b]pyridin-6-yl)-1,3-dihydro-imidazo[4,5-c]quinolin-2-one] | 1000 to 2000 |
| CCn1cc(-n2c(=O)n(C)c3cnc4cc(OC)c(-c5cnn(C)c5)cc4c32)c(C)n1 [compound 130, 1-(1-Ethyl-3-methyl-1H-pyrazol-4-yl)-7-methoxy-3-methyl-8-(1-methyl-1H-pyrazol-4-yl)-1,3-dihydro-imidazo[4,5-c]quinolin-2-one] | 200 to 1000 |
| [2H]C([2H])([2H])Oc1cncc(F)c1-n1c(=O)n(C)c2cnc3cc(OC)c(-c4cn(C)nc4C)cc3c21 [compound 150, 8-(1,3-Dimethylpyrazol-4-yl)-1-[3-fluoro-5-(trideuterio-methoxy)-4-pyridyl]-7-methoxy-3-methyl-imidazo-[4,5-c]quinolin-2-one] | < 200 |
| COc1cc2ncc3c(c2cc1-c1cnn(C)n1)n(-c1cn(C)nc1C)c(=O)n3C [compound 102, 1-(1,3-Dimethyl-1H-pyrazol-4-yl)-7-methoxy-3-methyl-8-(2-methyl-2H-1,2,3-triazol-4-yl)-1,3-dihydroimidazo-[4,5-c]quinolin-2-one] | < 200 |
| COc1cc2ncc3c(c2cc1-c1cnn(C)c1)n(-c1ncc(Cl)cc1F)c(=O)n3C [compound 119, 1-(5-Chloro-3-fluoropyridin-2-yl)-7-methoxy-3-methyl-8-(1-methyl-1H-pyrazol-4-yl)-1,3-dihydroimidazo[4,5-c]-quinolin-2-one] | < 200 |
| COc1cc2ncc3c(c2cc1-c1cn(C)nc1C)n(-c1ncc(OCS(C)(=O)=O)cc1F)c(=O)n3C [compound 203, 8-(1,3-Dimethyl-1H-pyrazol-4-yl)-1-(3-fluoro-5-methyl-sulfonylmethoxypyridin-2-yl)-7-methoxy-3-methyl-1,3-dihydroimidazo[4,5-c]-quinolin-2-one] | 200 to 1000 |
| COc1cc2ncc3c(c2cc1-c1cn(C)nn1)n(-c1c(C)cncc1F)c(=O)n3C [compound 63, 1-(3-Fluoro-5-methylpyridin-4-yl)-7-methoxy-3-methyl-8-(1-methyl-1H-1,2,3-triazol-4-yl)-1,3-dihydroimidazo-[4,5-c]quinolin-2-one] | 200 to 1000 |
| C=CCOc1cnc(-n2c(=O)n(C)c3cnc4cc(OC)c(-c5cnn(C)c5)cc4c32)c(F)c1 [compound 204, 1-(5-Allyloxy-3-fluoropyridin-2-yl)-7-methoxy-3-methyl-8-(1-methyl-1H-pyrazol-4-yl)-1,3-dihydroimidazo[4,5-c]-quinolin-2-one] | 200 to 1000 |
| COc1cc2ncc3c(c2cc1-c1cnn(C)c1)n(-c1ccc(F)cn1)c(=O)n3C [Compound Example 50, 1-(5-Fluoropyridin-2-yl)-7-methoxy-3-methyl-8-(1-methyl-1H-pyrazol-4-yl)-1,3-dihydroimidazo[4,5-c]-quinolin-2-one] | 200 to 1000 |
| COc1cc2ncc3c(c2cc1-c1cnn(C)c1)n(-c1ncc(OCC2CN(C)C2)cc1F)c(=O)n3C [compound 207, 1-[3-Fluoro-5-(1-methyl-azetidin-3-ylmethoxy)-pyridin-2-yl]-7-methoxy-3-methyl-8-(1-methyl-1H-pyrazol-4-yl)-1,3-dihydro-imidazo[4,5-c]quinolin-2-one] | 200 to 1000 |
| COc1cc2ncc3c(c2cc1-c1cnn(C)n1)n(-c1ncccc1F)c(=O)n3C [compound 158, 1-(3-Fluoropyridin-2-yl)-7-methoxy-3-methyl-8-(2-methyl-2H-1,2,3-triazol-4-yl)-1,3-dihydroimidazo-[4,5-c]quinolin-2-one] | 200 to 1000 |
| COc1cc2ncc3c(c2cc1-c1cnn(C)c1)n(-c1ccncc1C1CC1)c(=O)n3C [compound 200, 1-(3-Cyclopropylpyridin-4-yl)-7-methoxy-3-methyl-8-(1-methyl-1H-pyrazol-4-yl)-1,3-dihydroimidazo[4,5-c] quinolin-2-one] | 200 to 1000 |
| COc1cnc(-n2c(=O)n(C)c3cnc4cc(OC)c(-c5ccc6nc(C)[nH]c6c5)cc4c32)c(F)c1 [compound 144, 1-(3-Fluoro-5-methoxy-pyridin-2-yl)-7-methoxy-3-methyl-8-(2-methyl-3H-benzoimidazol-5-yl)-1,3-dihydroimidazo[4,5-c]-quinolin-2-one] | 200 to 1000 |
| COc1cc2ncc3c(c2cc1-c1cn(C)nn1)n(-c1c(F)cncc1OC)c(=O)n3C [compound 131, 1-(3-Fluoro-5-methoxy-pyridin-4-yl)-7-methoxy-3-methyl-8-(1-methyl-1H-1,2,3-triazol-4-yl)-1,3-dihydroimidazo[4,5-c]-quinolin-2-one] | 200 to 1000 |
| COc1cc2ncc3c(c2cc1-c1cc(N)n[nH]1)n(-c1ncccc1F)c(=O)n3C [compound 65, 8-(3-Amino-1H-pyrazol-5-yl)-1-(3-fluoro-2-pyridyl)-7-methoxy-3-methyl-imidazo-[4,5-c]quinolin-2-one] | 200 to 1000 |
| COc1cc2ncc3[nH]c(=O)n(-c4c(F)cncc4OC)c3c2cc1-c1cnn(C)c1 [compound 116, 1-(3-Fluoro-5-methoxy-pyridin-4-yl)-7-methoxy-8-(1-methyl-1H-pyrazol-4-yl)-1,3-dihydroimidazo[4,5-c]-quinolin-2-one] | 1000 to 2000 |

biological target: mTOR (human) (Homo sapiens (Human), UniProt P42345); test: mTOR (human) radiometric kinase assay; type: biochemical; settings: IC50 (ATM) at least 2000 times higher compared with IC50 (mTOR)
Experimental: mTOR (human) was incubated with 50 mM HEPES pH 7.5, 1 mM EGTA, 0.01% Tween 20, 2 mg/ml of the substrate, 3 mM MnCl2 and [γ-^33P-ATP] (specific activity approximately 500 cpm/pmol, concentration as necessary). The reaction was initiated by addition of MgATP solution. After incubation at room temperature for 40 minutes, the reaction was stopped by addition of 3% phosphoric acid. 10 μl of the reaction solution were then transferred dropwise onto a P30 filtermat and washed three times for 5 min in 75 mM phosphoric acid and once in methanol, dried and evaluated by means of liquid scintillation counting.

| ratio IC50 (ATM):IC50(mTOR), selectivity with respect to mTOR | Structure (SMILES) |
| --- | --- |
| at least 2000 times | COc1ccc(-c2cc3c(cc2OC)ncc2c3n(-c3cn(C)nc3F)c(=O)n2C)cn1 [compound 159, 1-(3-Fluoro-1-methyl-1H-pyrazol-4-yl)-7-methoxy-8-(6-methoxypyridin-3-yl)-3-methyl-1,3-dihydroimidazo-[4,5-c]quinolin-2-one] |
| at least 2000 times | COc1cc2ncc3c(c2cc1-c1cnn(C)c1)n(-c1cn(C)nc1F)c(=O)n3C [compound 141, 1-(3-Fluoro-1-methyl-1H-pyrazol-4-yl)-7-methoxy-3-methyl-8-(1-methyl-1H-pyrazol-4-yl)-1,3-dihydro-imidazo[4,5-c]quinolin-2-one] |

| Structure (SMILES) | ratio IC50 (ATM):IC50(mTOR), selectivity with respect to mTOR |
| --- | --- |
| CCc1cncc(F)c1-n1c(=O)n(C)c2cnc3cc(OC)c(-c4cn[nH]n4)cc3c21 [compound 125, 1-(3-Ethyl-5-fluoropyridin-4-yl)-7-methoxy-3-methyl-8-(2H-1,2,3-triazol-4-yl)-1,3-dihydroimidazo[4,5-c] quinolin-2-one] | at least 2000 times |
